Molecules are shown by their SMILES.

A word on the melting point: it is the temperature of the solid-liquid transition. With `CCCN(CCC)c1c(CC)nn2c(-c3ccc(Cl)cc3Cl)cccc12.O=C(O)/C=C\C(=O)O` [Example 11, 7-(2,4-Dichlorophenyl)-2-ethyl-N,N-dipropylpyrazolo[1,5-a]pyridin-3-amine maleic acid salt], the melting point fell in the range of 106 to 112 °C.

The compound `COc1ccc(-c2cccc3c(C(C)C)c(C)nn23)c(Cl)c1` [Example 40, 7-(2-Chloro-4-methoxyphenyl)-3-isopropyl-2-methylpyrazolo[1,5-a]pyridine] displayed a melting point of 111.9 to 114.9 °C.

On to `CCCN(CCC)c1c(CC)nn2c(-c3ccc(OC)cc3Cl)cccc12` [Example 13, 7-(2-Chloro-4-methoxyphenyl)-2-ethyl-N,N-dipropylpyrazolo[1,5-a]pyridin-3-amine], for which the melting point was in the range of 73.6 to 76 °C.

`CCCN(CCC)c1c(CC)nn2c(-c3ccc(OC)cc3C)cccc12` [Example 12, 2-Ethyl-7-(4-methoxy-2-methylphenyl)-N,N-dipropylpyrazolo[1,5-a]pyridin-3-amine]: the melting point is 76 to 79 °C.

`CCCN(CCC)c1c(CC)nn2c(-c3ccc(N(C)C)cc3Cl)cccc12` [Example 16, 7-[2-Chloro-4-(dimethylamino)phenyl]-2-ethyl-N,N-dipropylpyrazolo[1,5-a]pyridin-3-amine]: the melting point was in the range of 132.8 to 134.3 °C.

`CCc1nn2c(-c3ccc(OC)cc3Cl)cccc2c1N(CCF)CCOC` [Example 25, 7-(2-Chloro-4-methoxyphenyl)-2-ethyl-N-(2-fluoroethyl)-N-(2-methoxyethyl)pyrazolo[1,5-a]pyridin-3-amine] came in with a melting point of 45.8 to 52.8 °C.

Turning to `CCCN(CCC)c1c(CC)nn2c(-c3ccc(N(C)C)cc3C(F)(F)F)cccc12` [Example 14, 7-[4-(Dimethylamino)-2-(trifluoromethyl)phenyl]-2-ethyl-N,N-dipropylpyrazolo[1,5-a]pyridin-3-amine], the melting point fell in the range of 69.1 to 79.8 °C.

Compound `CCCN(CCC)c1c(CC)nn2c(-c3cnc(N(C)C)cc3C)cccc12` [Example 18, 7-[6-(Dimethylamino)-4-methylpyridin-3-yl]-2-ethyl-N,N-dipropylpyrazolo[1,5-a]pyridin-3-amine] had a melting point of 98.5 to 100.3 °C.

The record behind these values is patent US7151109B2, “Pyrazolo[1,5-a]pyridine derivatives and their use as neurotransmitter modulators” (Pharmacia & Upjohn Company LLC, priority 2002, dated 2006).
